As usually defined, the IC50 is the concentration that inhibits the measured activity by half.

18 molecules from paper PMC8812735, “Discovery of triterpenoids as potent dual inhibitors of pancreatic lipase and human carboxylesterase 1” (Journal of Enzyme Inhibition and Medicinal Chemistry, 2022) can be followed below.

Common to all, as to format: biochemical
One test addresses T1, Pancreatic lipase (PL) (Sus scrofa, UniProt P00591).
T1 construct: purchased Sigma Aldrich type II, Lot.SLBN9099V
T1 sequence (P00591 1-450): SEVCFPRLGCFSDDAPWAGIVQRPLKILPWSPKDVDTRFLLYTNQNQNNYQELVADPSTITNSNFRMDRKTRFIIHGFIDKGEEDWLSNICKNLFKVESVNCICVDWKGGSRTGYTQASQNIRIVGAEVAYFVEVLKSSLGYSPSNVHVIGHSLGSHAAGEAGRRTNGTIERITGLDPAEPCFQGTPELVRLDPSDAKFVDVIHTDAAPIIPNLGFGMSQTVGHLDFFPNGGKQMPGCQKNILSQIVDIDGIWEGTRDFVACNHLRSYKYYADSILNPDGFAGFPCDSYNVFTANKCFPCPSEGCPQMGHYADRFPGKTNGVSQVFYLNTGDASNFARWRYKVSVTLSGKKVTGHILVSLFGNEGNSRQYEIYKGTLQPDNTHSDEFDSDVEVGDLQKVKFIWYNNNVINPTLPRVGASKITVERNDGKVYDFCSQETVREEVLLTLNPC
Kind of test: Inhibition of PL-mediated 4-MUO hydrolysis. The settings on record: 4-MUO substrate, mean ± SD (n = 3). How it is done: In addition, the background fluorescence in the absence of an enzyme source (PL) (add the same amount of citrate-Na2HPO4 buffer) was measured. […] Then start the reaction by adding 2 µL of 4-MUO probe (3 µM, final concentration). The fluorescence signal of 4-MU (hydrolytic metabolite) was detected by multi-mode microplate reader (SpectraMax M4, Molecular Devices, Urstein, Austria) with continuous oscillation for 20 min and recorded and analysed at 60 s intervals. The excitation wavelength and emission wavelength of 4-MU were set at 340 nm and 460 nm, respectively, and the gain value was 500.
(§1) Subsequently, various concentrations of substrates (selected according to Km) and different concentrations of inhibitors were used to determine the corresponding reaction rate, and the second slope graph of the Lineweaver–Burk diagram was used as a function of the inhibitor to calculate the corresponding inhibition constant (Ki) value. All kinetic data were fitted by the following kinetic equations (a–c), for competitive (a), non-competitive (b) and mixed inhibition (c): (a) V=(VmaxS)/[Km(1+I/Ki)+S] (b) V=(VmaxS)/[(Km+S)×(1+I/Ki)] (c) V=(VmaxS)/[(Km+S)×(1+I/αKi)] where V is the hydrolytic velocity of the reaction, Vmax is the maximum velocity. S and I are substrate (4-MUO, NLMe) and inhibitor (compound 39/41) concentrations, respectively. Ki is the inhibition constant of the tested inhibitor against the target PL and hCES1A; Km is the Michaelis constant (the substrate concentration at half of the Vmax).
All measurements were made in triplicate and the data obtained in the experiment were shown as mean ± SD.

For another test, the target named is T2, hCES1A (Homo sapiens, UniProt P23141).
T2 construct: tissue Bioreclamation IVT lot No. X008067; host or cells: pooled human liver microsomes from 50 donors
T2 sequence (P23141 18-567): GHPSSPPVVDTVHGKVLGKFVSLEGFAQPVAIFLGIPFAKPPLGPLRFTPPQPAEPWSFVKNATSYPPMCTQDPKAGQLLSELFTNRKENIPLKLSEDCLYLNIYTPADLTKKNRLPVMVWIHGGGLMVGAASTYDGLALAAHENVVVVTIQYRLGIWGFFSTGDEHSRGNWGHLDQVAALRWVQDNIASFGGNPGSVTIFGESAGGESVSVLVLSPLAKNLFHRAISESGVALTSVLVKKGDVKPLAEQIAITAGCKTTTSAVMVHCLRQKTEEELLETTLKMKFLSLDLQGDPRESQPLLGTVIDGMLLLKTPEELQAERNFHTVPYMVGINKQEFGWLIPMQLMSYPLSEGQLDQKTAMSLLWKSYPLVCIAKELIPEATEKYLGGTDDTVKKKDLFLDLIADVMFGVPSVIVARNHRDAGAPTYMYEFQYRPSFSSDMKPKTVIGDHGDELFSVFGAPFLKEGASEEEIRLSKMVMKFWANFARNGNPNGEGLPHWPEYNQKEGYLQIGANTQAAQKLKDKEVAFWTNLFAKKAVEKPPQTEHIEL
The test can be described thus: Inhibition of hCES1A-mediated NLMe hydrolysis in human liver microsomes. Here is the method: N-Alkylated D-luciferin methyl ester (NLMe), a Specific probe for hCES1A[45], was used for assessing the inhibitory effects for triterpenoids, and BNPP was used as a positive inhibitor of hCES1A. […] Then NLMe (2 µL, 0.15 mM) was added to start the reaction. After shaking the reaction in 37 °C incubator for 10 min, 50 µL of reaction solution was removed and mixed with LDR (50 µL) to terminate the reaction. A multi-mode microplate reader was used to detect the luminescence signal of NL (the hydrolysed metabolite of NLMe). The luminescence product of NL was measured at 580 nm (gain: 140). The final volume ratio of DMSO was less than 1% (V/V).
as §1
All measurements were made in triplicate and the data obtained in the experiment were shown as mean ± SD. The IC50 and Ki values of the compounds with strong inhibitory effect were evaluated by nonlinear regression with graphpad prism 7.0 software (GraphPad Software, Inc., La Jolla, CA).
In general terms: Liver microsomes are a subcellular fraction often used to study metabolism.

The next test addresses T3, hCES2A (Homo sapiens, UniProt O00748).
T3 sequence (O00748 27-559): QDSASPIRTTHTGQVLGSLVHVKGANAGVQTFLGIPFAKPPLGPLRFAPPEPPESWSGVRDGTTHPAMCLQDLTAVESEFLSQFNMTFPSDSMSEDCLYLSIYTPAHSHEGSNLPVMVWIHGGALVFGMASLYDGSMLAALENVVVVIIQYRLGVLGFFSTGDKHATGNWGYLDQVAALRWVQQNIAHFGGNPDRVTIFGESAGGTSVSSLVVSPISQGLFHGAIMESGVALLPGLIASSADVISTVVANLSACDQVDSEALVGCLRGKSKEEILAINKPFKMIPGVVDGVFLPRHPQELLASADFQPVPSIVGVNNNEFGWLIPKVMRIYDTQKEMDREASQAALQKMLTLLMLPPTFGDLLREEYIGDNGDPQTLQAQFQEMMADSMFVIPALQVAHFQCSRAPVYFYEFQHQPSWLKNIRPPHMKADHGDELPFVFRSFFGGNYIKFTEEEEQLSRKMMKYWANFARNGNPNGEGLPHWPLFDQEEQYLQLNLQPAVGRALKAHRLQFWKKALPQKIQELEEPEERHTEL
The test can be described thus: Inhibition of hCES2A-mediated FD hydrolysis. The source says:
[…] (FD) was used as the hCES2A specific probe substrate to assay the inhibitory effect of natural triterpenoids on hCES2A. The entire detailed operation process refers to the previously reported method, and finally the FD mixture was put into the multi-mode microplate reader for analysis and detection.

Setting [1] is: NLMe substrate, HLM, mean ± SD (n = 3), read-out: IC50 (µM) hCES1A.

Molecules are shown by their SMILES. Like-named read-outs stand apart in the source and are kept apart here.

Turning to `CC1(C)CC[C@]2(C(=O)O)CC[C@]3(C)C(=CC[C@@H]4[C@@]5(C)CC[C@H](O)[C@@](C)(CO)[C@@H]5CC[C@]43C)[C@@H]2C1` [Compound 3, hederagenin], the IC50 against Pancreatic lipase (PL) stood at 13 ± 2.03 µM; at hCES1A (setting [1]), 0.04 ± 0.004 µM; on hCES2A (FD substrate, mean ± SD (n = 3), read-out: IC50 (µM) hCES2A), 9.22 ± 1.43 µM.

On to `C[C@H]1[C@H](C)CC[C@]2(C(=O)O)CC[C@]3(C)C(=CC[C@@H]4[C@@]5(C)C[C@@H](O)[C@H](O)[C@@](C)(CO)[C@@H]5CC[C@]43C)[C@H]12` [Compound 7, asiatic acid], for which the values for the IC50 at Pancreatic lipase (PL), against hCES1A and against hCES2A were 12.9 ± 1.87 µM, 0.17 ± 0.02 µM and 65.1 ± 6.41 µM, respectively.

With `C[C@H]1[C@H](C)CC[C@]2(C)CC[C@]3(C)C(=CC[C@@H]4[C@@]5(C)CC[C@@H](O)[C@](C)(C(=O)O)[C@@H]5CC[C@]43C)[C@H]12` [Compound 8, β-Boswellic acid], the IC50 was 0.42 ± 0.05 µM on Pancreatic lipase (PL) and more than 100 µM on hCES1A (setting [1]).

Regarding `CC1=C(O)C(=O)C=C2C1=CC=C1[C@@]2(C)CC[C@@]2(C)[C@@H]3C[C@](C)(C(=O)O)CC[C@]3(C)CC[C@]12C` [Compound 11, Celastrol], the IC50 on Pancreatic lipase (PL) stood at 4.69 ± 0.37 µM; against hCES1A, 14.3 ± 3.03 µM.

Consider `C=C(C)[C@@H]1CC[C@]2(CO)CC[C@]3(C)[C@H](CC[C@@H]4[C@@]5(C)CC[C@H](O)C(C)(C)[C@@H]5CC[C@]43C)[C@@H]12` [Compound 12, betulin], for which the values for the IC50 at Pancreatic lipase (PL) and against hCES1A were 7.47 ± 1.68 µM and more than 100 µM, respectively.

Regarding `O=[N+]([O-])c1ccc(OP(=O)(O)Oc2ccc([N+](=O)[O-])cc2)cc1` [Compound 29, Bis-p-nitrophenyl phosphate, reference compound], the IC50 against Pancreatic lipase (PL) is more than 100 µM; on hCES1A (setting [1]), 0.36 ± 0.03 µM.

In the case of `CC1(C)CCC2(C(=O)O)CCC3(C)C(=CCC4C5(C)CCC(=O)C(C)(C)C5CCC43C)C2C1` (centres unmarked) [Compound 30], the results for the IC50 on Pancreatic lipase (PL) and at hCES1A (setting [1]) were 7.51 ± 1.08 µM and 0.047 ± 0.003 µM, respectively.

Take `CC(=O)OC1CCC2(C)C(CCC3(C)C2CC=C2C4CC(C)(C)CCC4(C(=O)O)CCC23C)C1(C)C` (centres unmarked) [Compound 31]: the IC50 on Pancreatic lipase (PL) was determined as 3.67 ± 0.72 µM; at hCES1A, 0.051 ± 0.005 µM.

As for `CC(=O)OC1CCC2(C)C(CCC3(C)C2CC=C2C4CC(C)(C)CCC4(C(N)=O)CCC23C)C1(C)C` (centres unmarked) [Compound 32], the IC50 amounted to 7.02 ± 0.59 µM at Pancreatic lipase (PL) and 0.11 ± 0.013 µM on hCES1A (setting [1]).

As for `CC1(C)CCC2(C(=O)O)CCC3(C)C(=CCC4C5(C)CCC(OC(=O)CCC(=O)O)C(C)(C)C5CCC43C)C2C1` (centres unmarked) [Compound 33], the results for the IC50 against Pancreatic lipase (PL) and at hCES1A (setting [1]) were 36.4 ± 5.17 µM and 0.043 ± 0.003 µM, respectively.

Turning to `CCCC(=O)OC1CCC2(C)C(CCC3(C)C2CC=C2C4CC(C)(C)CCC4(C(=O)O)CCC23C)C1(C)C` (centres unmarked) [Compound 34], the IC50 was more than 100 µM against Pancreatic lipase (PL) and 0.24 ± 0.049 µM on hCES1A (setting [1]).

Consider `CCCCCC(=O)OC1CCC2(C)C(CCC3(C)C2CC=C2C4CC(C)(C)CCC4(C(=O)O)CCC23C)C1(C)C` (centres unmarked) [Compound 35], for which the IC50 is more than 100 µM on Pancreatic lipase (PL) and 1.82 ± 0.29 µM at hCES1A (setting [1]).

Take `COC(=O)C12CCC(C)(C)CC1C1=CCC3C4(C)CCC(O)C(C)(C)C4CCC3(C)C1(C)CC2` (centres unmarked) [Compound 36]: the IC50 against Pancreatic lipase (PL) was determined as 30.6 ± 3.58 µM; at hCES1A (setting [1]), 0.856 ± 0.15 µM.

With `CC1(C)CCC2(CO)CCC3(C)C(=CCC4C5(C)CCC(O)C(C)(C)C5CCC43C)C2C1` (centres unmarked) [Compound 37], the concentration for half-maximal inhibition (IC50) was 11.8 ± 1.6 µM on Pancreatic lipase (PL) and 4.11 ± 0.77 µM on hCES1A (setting [1]).

Regarding `CC1(C)CCC2(C(N)=O)CCC3(C)C(=CCC4C5(C)CCC(O)C(C)(C)C5CCC43C)C2C1` (centres unmarked) [Compound 38], the IC50 against Pancreatic lipase (PL) turned out to be 7.83 ± 1.21 µM; on hCES1A (setting [1]) it was 0.48 ± 0.06 µM.

For `CC1CCC2(C(=O)O)CCC3(C)C(=CCC4C5(C)CCC(=O)C(C)(C)C5CCC43C)C2C1C` (centres unmarked) [Compound 40], the IC50 at Pancreatic lipase (PL) is 6.94 ± 1.37 µM; on hCES1A (setting [1]), 0.93 ± 0.18 µM.

Regarding `CC1CCC2(C(=O)O)CCC3(C)C(=CCC4C5(C)CCC(OC(=O)CCC(=O)O)C(C)(C)C5CCC43C)C2C1C` (centres unmarked) [Compound 42], the IC50 against Pancreatic lipase (PL) stood at 20.9 ± 1.78 µM; at hCES1A, 0.028 ± 0.003 µM.

Regarding `CC1CCC2(C(=O)O)CCC3(C)C(=CCC4C5(C)C=C(O)C(=O)C(C)(C)C5CCC43C)C2C1C` (centres unmarked) [Compound 43], the figures for the IC50 at Pancreatic lipase (PL) and on hCES1A (setting [1]) were 5.21 ± 1.24 µM and 0.032 ± 0.003 µM, respectively.
